Values quoted from earlier work in patent US20220233546A1, “Neurologist Formulated Nocturnal Nootropic Founded on a Novel Theory of Brain Aging” (priority 2022, published 2022).
Read-outs that look alike come from different tables or passages of the source.

What was measured:
[1] = daily dose of 200 to 2400 mg/day
[2] = in vivo
[3] = system: young persons with multiple sclerosis
[4] = system: persons with Alzheimer's disease, Parkinson's disease, and multiple sclerosis; details: combination therapy including Apigenin 100 mg
plasma homocysteine = details: supplementation, human
[5] = human; saffron extract 56 mg and 84 mg
[6] = 675 mg, at 4 weeks
[7] = system: children with autism spectrum disorder; details: combination therapy including Luteolin 100 mg
[8] = system: amyotrophic lateral sclerosis (ALS)
multiple sclerosis = details: high doses; adjunctive therapy in multiple sclerosis
[9] = system: persons with mild cognitive impairment
[10] = system: neurohypophyseal hormone release
[11] = system: persons with mild cognitive impairment; remark: listed apart in the source

O=C(O)CCCCC1CCSS1 (racemic) [ALA, Alpha Lipoic Acid]
safety and tolerability [1]: safe and well-tolerated

C/C1=C2/[N-][C@H]([C@H](CC(N)=O)[C@@]2(C)CCC(=O)NC[C@H](C)OP(=O)([O-])O[C@H]2[C@@H](O)[C@@H](n3cnc4cc(C)c(C)cc43)O[C@@H]2CO)[C@]2(C)N=C(/C(C)=C3N=C(/C=C4N=C1[C@@H](CCC(N)=O)C\4(C)C)[C@@H](CCC(N)=O)[C@]\3(C)CC(N)=O)[C@@H](CCC(N)=O)[C@]2(C)CC(N)=O.[Co+2] (stereo in doubt) [cobalamin]
bioavailability [2]: 50%

O=C(O)CCCC[C@@H]1CCSS1 [(R)-Alpha Lipoic Acid]
safety and tolerability profile ([3]; human, in vivo): good safety and tolerability profile
reduction of yearly rate of brain atrophy ([3]; young persons with multiple sclerosis): ~70%

O=c1cc(-c2ccc(O)cc2)oc2cc(O)cc(O)c12 [Apigenin]
clinical course and biomarkers including abnormal protein deposition [4]: trend towards clinical stabilization and reduction of specific biomarkers

C[N+](C)(C)CC(=O)O [Betaine]
plasma homocysteine concentrations (plasma homocysteine): significant reduction

CC(/C=C/C=C(\C)C(=O)O)=C\C=C\C=C(C)\C=C\C=C(/C)C(=O)O [Crocetin]
bioavailability [5]: 40%
serum concentration of saffron isomers [5]: detected at a significant concentration

COc1cc(/C=C/C(=O)CC(=O)/C=C/c2ccc(O)c(OC)c2)ccc1O [Curcumin]
working memory and attention (Buschke Selective Reminding Test, Brief Visual Memory Test-Revised, Trail Making A) (adults without dementia; adults without dementia): improves working memory and attention
post-interventional changes in pathological proteins (amyloid and tau) by positron emission tomography (adults without dementia; brain regions including the amygdala): significant decrease in pathological proteins

O=C(O)[C@H](O)[C@@H](O)CO [L-Threonate]
increase in CSF Threonate concentration [6]: 54%
increase in magnesium concentration ([6]; CSF): 15%
Threonate concentration in cerebrospinal fluid (CSF) (CSF): ~100 µM
Threonate concentration in plasma (plasma): approximately 20 μM

O=c1cc(-c2ccc(O)c(O)c2)oc2cc(O)cc(O)c12 [Luteolin]
adaptive functioning and Aberrant Behavior Checklist subscale scores [7]: improvement in adaptive functioning and reduction in Aberrant Behavior Checklist subscale scores
adverse effects [7]: no adverse effects

COc1cc(/C=C/c2ccc(O)cc2)cc(OC)c1 [Trans-Pterostilbene]
function and progression of neurodegenerative processes [8]: significantly improves function in and slows progression of neurodegenerative processes

C=C1CC[C@H](O)C/C1=C/C=C1\CCC[C@]2(C)[C@@H]([C@H](C)CCCC(C)C)CC[C@@H]12 [cholecalciferol, Cholecalciferol]
brain lesions, disability and mobility (multiple sclerosis): fewer new brain lesions, reduced disability, and improved mobility

Nc1nc2ncc(CNc3ccc(C(=O)N[C@@H](CCC(=O)O)C(=O)O)cc3)nc2c(=O)[nH]1 [folic acid]
dementia-related biomarkers (beta-amyloid, homocysteine, S-adenosylmethionine, amyloid precursor protein mRNA expression) [9]: deceases dementia-related biomarkers
cognitive function (full scale IQ, verbal IQ, verbal comprehension index, working memory index) ([9]; pre- and post-intervention): improves cognitive function

COc1ccc2[nH]cc(CCNC(C)=O)c2c1 [melatonin, Melatonin]
neurohypophyseal hormone release ([10]; higher dose melatonin 5 mg): inhibited
neurohypophyseal hormone release ([10]; low dose melatonin 0.5 mg): augmented
cognition after a battery of neurocognitive testing [11]: significant improvement in cognition

CC1=C(C=O)C(C)(C)CC=C1 [safranal, reference compound]
serum concentration of saffron isomers [5]: undetectable
